Results: ChEMBL document CHEMBL3885861, “Open TG-GATES”

Species: Rattus norvegicus
Assay: Open TG-GATES - Regimen: Single
Format: toxicity, organism-based, Sprague-Dawley
Design: regimen Single, gender Male, age 6 weeks
Details: in vivo, po, 0 mg/kg, route gavage, dose level Control; for APTT / Bas / Eos / Fbg / Hb / Ht / Lym / MCH / MCHC / MCV / Mono / Neu / PT / Plat / RBC / Ret / WBC: tissue Blood; for KIDNEY_L / KIDNEY_R / KIDNEY_TOTAL: tissue Kidney; for LIVER: tissue Liver; for A/G / ALP / ALT / AST / BUN / CRE / Ca / Cl / DBIL / GLC / IP / K / LDH / Na / PL / RALB / TBIL / TC / TG / TP / gamma-GTP: tissue Plasma

ClC(Cl)(Cl)Cl [CARBON TETRACHLORIDE]
TERMINAL_BW (3 h): 204.7 g
APTT (3 h): 16.7 s
Bas (3 h): 0%
Eos (3 h): 1%
Fbg (3 h): 245 mg/dL
Hb (3 h): 13 g/dL
Ht (3 h): 37.3%
Lym (3 h): 73.8%
MCH (3 h): 21.7 pg
MCHC (3 h): 34.8%
MCV (3 h): 62.3 fL
Mono (3 h): 3.6%
Neu (3 h): 21.6%
PT (3 h): 12 s
Plat (3 h): 132.6 x10_4/uL
RBC (3 h): 599 x10_4/ul
Ret (3 h): 8.6%
WBC (3 h): 103.4 x10_2/uL
KIDNEY_L (3 h): 0.9 g
KIDNEY_R (3 h): 0.9 g
KIDNEY_TOTAL (3 h): 1.8 g
LIVER (3 h): 10 g
A/G (3 h): 1.6
ALP (3 h): 947 IU/L
ALT (3 h): 37.2 IU/L
AST (3 h): 66.6 IU/L
BUN (3 h): 13.2 mg/dL
CRE (3 h): 0.4 mg/dL
Ca (3 h): 11 mg/dL
Cl (3 h): 104.2 meq/L
DBIL (3 h): 0.3 mg/dL
GLC (3 h): 207 mg/dL
IP (3 h): 9 mg/dL
K (3 h): 3.9 meq/L
LDH (3 h): 209 IU/L
Na (3 h): 139.6 meq/L
PL (3 h): 179.8 mg/dL
RALB (3 h): 3.4 g/dL
TBIL (3 h): 0.3 mg/dL
TC (3 h): 87.2 mg/dL
TG (3 h): 159.6 mg/dL
TP (3 h): 5.6 g/dL
gamma-GTP (3 h): 0.6 IU/L
TERMINAL_BW (6 h): 204.3 g
APTT (6 h): 17 s
Bas (6 h): 0%
Eos (6 h): 0.8%
Fbg (6 h): 230.8 mg/dL
Hb (6 h): 13 g/dL
Ht (6 h): 37.6%
Lym (6 h): 69%
MCH (6 h): 22 pg
MCHC (6 h): 34.6%
MCV (6 h): 63.4 fL
Mono (6 h): 3.4%
Neu (6 h): 26.6%
PT (6 h): 12.1 s
Plat (6 h): 140.4 x10_4/uL
RBC (6 h): 593.6 x10_4/ul
Ret (6 h): 8.9%
WBC (6 h): 98.9 x10_2/uL
KIDNEY_L (6 h): 0.9 g
KIDNEY_R (6 h): 0.9 g
KIDNEY_TOTAL (6 h): 1.8 g
LIVER (6 h): 9 g
A/G (6 h): 1.5
ALP (6 h): 1166.6 IU/L
ALT (6 h): 31.4 IU/L
AST (6 h): 62.8 IU/L
BUN (6 h): 9.6 mg/dL
CRE (6 h): 0.4 mg/dL
Ca (6 h): 10.7 mg/dL
Cl (6 h): 104 meq/L
DBIL (6 h): 0.094 mg/dL
GLC (6 h): 196.8 mg/dL
IP (6 h): 9.8 mg/dL
K (6 h): 4.1 meq/L
LDH (6 h): 189.2 IU/L
Na (6 h): 139.8 meq/L
PL (6 h): 161.4 mg/dL
RALB (6 h): 3.3 g/dL
TBIL (6 h): 0.2 mg/dL
TC (6 h): 89.4 mg/dL
TG (6 h): 61 mg/dL
TP (6 h): 5.4 g/dL
gamma-GTP (6 h): 1 IU/L
TERMINAL_BW (9 h): 201.8 g
APTT (9 h): 16.1 s
Bas (9 h): 0%
Eos (9 h): 0.8%
Fbg (9 h): 222.4 mg/dL
Hb (9 h): 12.6 g/dL
Ht (9 h): 36.6%
Lym (9 h): 76.6%
MCH (9 h): 22.2 pg
MCHC (9 h): 34.6%
MCV (9 h): 64.2 fL
Mono (9 h): 2.2%
Neu (9 h): 20%
PT (9 h): 12.2 s
Plat (9 h): 131.9 x10_4/uL
RBC (9 h): 570 x10_4/ul
Ret (9 h): 9.7%
WBC (9 h): 82.1 x10_2/uL
KIDNEY_L (9 h): 0.9 g
KIDNEY_R (9 h): 0.9 g
KIDNEY_TOTAL (9 h): 1.8 g
LIVER (9 h): 8.6 g
A/G (9 h): 1.4
ALP (9 h): 961.6 IU/L
ALT (9 h): 30 IU/L
AST (9 h): 62.6 IU/L
BUN (9 h): 11.2 mg/dL
CRE (9 h): 0.4 mg/dL
Ca (9 h): 10.3 mg/dL
Cl (9 h): 102.4 meq/L
DBIL (9 h): 0.066 mg/dL
GLC (9 h): 207.2 mg/dL
IP (9 h): 10.7 mg/dL
K (9 h): 3.7 meq/L
LDH (9 h): 163 IU/L
Na (9 h): 139.2 meq/L
PL (9 h): 129.8 mg/dL
RALB (9 h): 3.1 g/dL
TBIL (9 h): 0.1 mg/dL
TC (9 h): 69.8 mg/dL
TG (9 h): 35.6 mg/dL
TP (9 h): 5.4 g/dL
gamma-GTP (9 h): 1.2 IU/L
TERMINAL_BW (24 h): 215.9 g
APTT (24 h): 18.1 s
Bas (24 h): 0.2%
Eos (24 h): 1%
Fbg (24 h): 256.8 mg/dL
Hb (24 h): 13.7 g/dL
Ht (24 h): 38.8%
Lym (24 h): 82%
MCH (24 h): 22.5 pg
MCHC (24 h): 35.3%
MCV (24 h): 63.8 fL
Mono (24 h): 2.4%
Neu (24 h): 14.2%
PT (24 h): 11.8 s
Plat (24 h): 140.8 x10_4/uL
RBC (24 h): 607.2 x10_4/ul
Ret (24 h): 8%
WBC (24 h): 105.9 x10_2/uL
KIDNEY_L (24 h): 0.9 g
KIDNEY_R (24 h): 0.9 g
KIDNEY_TOTAL (24 h): 1.9 g
LIVER (24 h): 10.6 g
A/G (24 h): 1.6
ALP (24 h): 1231.6 IU/L
ALT (24 h): 37.2 IU/L
AST (24 h): 66.6 IU/L
BUN (24 h): 15 mg/dL
CRE (24 h): 0.4 mg/dL
Ca (24 h): 10.9 mg/dL
Cl (24 h): 103 meq/L
DBIL (24 h): 0.088 mg/dL
GLC (24 h): 202.2 mg/dL
IP (24 h): 7.4 mg/dL
K (24 h): 3.8 meq/L
LDH (24 h): 186.2 IU/L
Na (24 h): 140 meq/L
PL (24 h): 156.2 mg/dL
RALB (24 h): 3.5 g/dL
TBIL (24 h): 0.2 mg/dL
TC (24 h): 79.2 mg/dL
TG (24 h): 100 mg/dL
TP (24 h): 5.7 g/dL
gamma-GTP (24 h): 1.2 IU/L
